Measurements: patent US8486991B2, “Enantiomerically pure phosphoindoles as HIV inhibitors” (Idenix Pharmaceuticals, Inc., priority 2006, dated 2013)
Like-named read-outs stand apart in the source and are kept apart here.

Assays:
[1] = Cellular cytotoxicity, 4 days, MTS, U937; assay type: cell-based; settings: human, Table 21, read-out: Average CC50 Values ± Standard Deviation, U937
Protocol: (§1) Cell viability was measured by standard MTT or MTS staining.

[2] = Cellular cytotoxicity, 4 days, MTS, IM9; assay type: cell-based; settings: human, Table 21, read-out: Average CC50 Values ± Standard Deviation, IM9
Protocol: as §1

[3] = Cellular cytotoxicity, 4 days, MTS, MT-4; settings: human, Average CC50 Values ± Standard Deviation, MT-4, Table 21, 4 days, MTS
Protocol: Following drug exposure for 4 days, cell viability was measured by MTS staining and CC50 values were determined. Drug concentrations ranged from 0.005 μM to 100 μM.
The preceding data, allows us to calculate selectivity index (SI) values, based on the ratio of CC50 to EC50 in MT-4 cells (the standard assay used in this work).

[4] = test system: HIV-1 BH10 K103N mutant virus; test: microbe, parasite or virus in culture; assay type: cell-based; settings: for Fold Change, K103N: Table 9, CPE
Protocol: The activity of the compounds was also assessed with the same virus and cell type using a different assay readout based on cytopathic effect (CPE).
MT-4 cells (Source: NIH Catalog #120) were seeded onto 96-well cell culture plates (1×10^4 cells per well in 50 μL).
The final DMSO concentration in the assay was 0.5% in 120 μL. Cell cultures were then incubated at 37° C./5% CO2 for 4 days. Then, Cell Titer 96 AQueous One Solution Cell Proliferation Assay (Promega) was used to measure cell viability. Briefly, the One Solution Reagent was added directly to culture wells (20 μL/well), incubated for 5 hours, and the absorbance was recorded at 492 nm using the Sunrise Tecan Spectrophotometer.
The EC50 values were determined from the percent inhibition versus concentration data using a sigmoidal non-linear regression analysis based on four parameters with Tecan Magellan software.

[5] = target: T1, human DNA polymerase alpha (Homo sapiens, UniProt P09884); test: Human cellular DNA polymerase alpha assay; assay type: biochemical
T1 sequence (P09884 1-1462): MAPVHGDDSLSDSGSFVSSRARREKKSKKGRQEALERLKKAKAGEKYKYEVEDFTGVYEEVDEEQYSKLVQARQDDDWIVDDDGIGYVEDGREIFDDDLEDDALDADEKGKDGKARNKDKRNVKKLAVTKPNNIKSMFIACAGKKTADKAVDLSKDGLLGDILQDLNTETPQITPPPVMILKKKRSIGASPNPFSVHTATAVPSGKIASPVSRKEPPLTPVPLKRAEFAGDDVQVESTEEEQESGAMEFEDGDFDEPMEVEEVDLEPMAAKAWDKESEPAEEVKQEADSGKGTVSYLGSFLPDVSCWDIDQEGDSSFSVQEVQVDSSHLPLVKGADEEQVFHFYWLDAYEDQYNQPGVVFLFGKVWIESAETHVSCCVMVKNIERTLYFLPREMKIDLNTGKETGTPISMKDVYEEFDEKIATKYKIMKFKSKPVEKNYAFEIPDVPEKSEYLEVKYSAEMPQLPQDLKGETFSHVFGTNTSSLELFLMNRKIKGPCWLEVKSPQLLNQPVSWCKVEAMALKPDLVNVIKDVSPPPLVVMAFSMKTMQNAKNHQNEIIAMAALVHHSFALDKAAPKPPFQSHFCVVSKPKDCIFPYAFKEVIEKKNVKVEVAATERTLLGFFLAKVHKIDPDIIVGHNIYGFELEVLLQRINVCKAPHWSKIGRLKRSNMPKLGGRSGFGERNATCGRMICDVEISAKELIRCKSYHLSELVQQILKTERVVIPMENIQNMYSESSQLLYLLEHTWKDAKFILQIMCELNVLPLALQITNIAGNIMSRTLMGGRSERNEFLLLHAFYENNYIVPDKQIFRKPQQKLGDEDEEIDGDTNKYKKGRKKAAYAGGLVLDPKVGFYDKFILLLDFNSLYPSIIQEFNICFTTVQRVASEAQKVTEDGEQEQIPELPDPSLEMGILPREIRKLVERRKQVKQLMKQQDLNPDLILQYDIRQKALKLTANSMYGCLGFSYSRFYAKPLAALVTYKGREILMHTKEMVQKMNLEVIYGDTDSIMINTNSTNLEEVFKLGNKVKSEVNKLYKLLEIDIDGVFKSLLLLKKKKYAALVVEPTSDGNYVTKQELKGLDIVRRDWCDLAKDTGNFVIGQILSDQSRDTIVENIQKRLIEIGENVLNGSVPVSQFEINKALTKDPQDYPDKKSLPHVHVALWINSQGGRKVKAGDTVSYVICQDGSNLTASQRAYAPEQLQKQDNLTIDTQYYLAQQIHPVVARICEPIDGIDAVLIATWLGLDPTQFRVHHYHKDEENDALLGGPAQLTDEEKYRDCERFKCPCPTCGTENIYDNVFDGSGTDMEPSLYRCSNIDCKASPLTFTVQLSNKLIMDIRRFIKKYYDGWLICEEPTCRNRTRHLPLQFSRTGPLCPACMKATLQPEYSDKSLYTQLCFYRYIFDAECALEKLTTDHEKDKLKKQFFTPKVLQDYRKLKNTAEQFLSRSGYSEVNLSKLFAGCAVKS
Source text: HIV RT, like other viral polymerase, shares limited structural homology with the cellular DNA polymerases responsible for normal nuclear and mitochondrial DNA synthesis and repair. This raises the formal possibility that inhibitors of HIV RT might inhibit cellular polymerases, resulting in cellular toxicity. In particular, inhibition of polymerase gamma has the potential to result in mitochondrial toxicity. The ability of Compound I and Compound III to inhibit cellular DNA polymerases was assessed using standard in vitro assays (Table 5).

[6] = Longer term cytotoxicity, 12 days, MTS, HepG2; settings: human
Protocol: as §1
Cells were repeatedly treated with a range of drug concentrations (0.005 to 100 μM) for 9 (HeLa) or 12 days (HuH7, HepG2).

HIV-1 W.T. (BH10) virus = test: microbe, parasite or virus in culture; assay type: cell-based; settings: for Fold Change, W.T.: Table 13, MT-2
Source text: The HIV-1 strains used were BH10, NL4-3 and IIIB: the cell lines were U-937 cells (human monocytes derived from a histiocytic lymphoma); MOLT-4 cells (a human T lymphoblastic leukemia cell line); H-9 cells (human lymphoblastic T cells); and MT-2 and MT-4 human leukemia T cells.

HIV-1 IIIB in H9 cells = test: Drug susceptibility assay, IIIB in H9 cells; assay type: cell-based; settings: Human immunodeficiency virus 1, IIIB
Source text: The virus and host-cell dependency of Compound I, Compound III and control drugs was further examined in drug susceptibility assays performed across 3 different subtype B wild-type HIV-1 strains and 5 different cell lines.

[7] = Human immunodeficiency virus 1, MT4, read-out: Average EC50 Values ± Standard Deviation, K103N
[8] = Human immunodeficiency virus 1, MT4, read-out: EC50, K103N
[9] = Human immunodeficiency virus 1, MT2, read-out: Average EC50 Values ± Standard Deviation, W.T. (BH10)
[10] = Human immunodeficiency virus 1, MT2, read-out: Average EC50 Values ± Standard Deviation, host MT-2, virus BH10
[11] = U-937 cells (monocytes derived from a histiocytic lymphoma)
[12] = IM9 cells (B lymphoblastic cell line)
[13] = Table 5, read-out: Average IC50 Values ± Standard Deviation, DNA Pol Alpha
[14] = H9, Table 17, read-out: Average EC50 Values ± Standard Deviation, host H9, virus IIIB

Structure (SMILES)	EC50 [4, 7] [nM]	EC50 [4, 8] [nM]	Fold Change, K103N [4] [fold]	Average IC50 Values ± Standard Deviation, DNA Pol Alpha ([5]; Table 5)	EC50 (HIV-1 W.T. (BH10) virus; [9]) [nM]	EC50 (HIV-1 W.T. (BH10) virus; [10]) [nM]	Fold Change, W.T. (HIV-1 W.T. (BH10) virus) [fold]	CC50 at 4 days [1, 11] [µM]	CC50 at 4 days [2, 12] [µM]	CC50 at 4 days ([3]; MT-4 cells (leukemia T cells)) [µM]	IC50 [5, 13] [µM]	CC50 at 12 days ([6]; HepG2 liver cells) [µM]	EC50 (HIV-1 IIIB in H9 cells; [14]) [nM]	other results
CO[P@](=O)(c1cc(C)cc(/C=C/C#N)c1)c1c(C(N)=O)[nH]c2ccc(Cl)c(F)c12 [Compound I, (2-Carbamoyl-5-chloro-4-fluoro-1H-indol-3-yl)-[3-((E)-2-cyano-vinyl)-5-methyl-phenyl]-(R)-phosphinic acid methyl ester]	0.3 ± 0.1	0.26 ± 0.057	1.0 ± 0.3	did not reach an IC50	0.9 ± 0.6	0.9 ± 0.6	1							CC50 at 4 days [1]: 26.5 ± 0.5 µM; CC50 at 4 days [2]: 32.9 ± 2.6 µM; CC50 at 4 days [3]: 27 µM; IC50 ([5]; Average IC50 Values ± Standard Deviation, DNA Pol Alpha, Table 5): 146 ± 44.5 µM; IC50 ([5]; Mean IC50 Values ± Standard Deviation, DNA Pol Alpha, Table 6, N=4): 146 ± 44.5 µM; CC50 at 12 days [6]: 25.7 ± 3.26 µM; EC50 (HIV-1 IIIB in H9 cells; H9, read-out: Average EC50 Values ± Standard Deviation, host H9, virus IIIB): 0.6 ± 0.1 nM
CO[P@](=O)(c1cc(C)cc(/C=C/C#N)c1)c1c(C(N)=O)[nH]c2ccc(Cl)cc12 [Compound III, (2-Carbamoyl-5-chloro-1H-indol-3-yl)-[3-((E)-2-cyano-vinyl)-5-methyl-phenyl]-(R)-phosphinic acid methyl ester]	0.1 ± 0.1	0.14 ± 0.052	1.1 ± 0.3	did not reach an IC50	1.1 ± 0.4	1.1 ± 0.4	1	24.6 ± 1.9	50 ± 17.4	18.6	159 ± 84.3	23.5 ± 1.51	0.5 ± 0.2	
O=C1Nc2ccc(Cl)cc2C(C#CC2CC2)(C(F)(F)F)O1 (centres unmarked) [EFV, 6-chloro-4-cyclopropylethynyl-4-trifluoromethyl-1,4-dihydro-2H-3,1-benzoxazin-2-one, reference compound]	41 ± 13			did not reach an IC50	0.8 ± 0.2	0.8 ± 0.2		23.2 ± 1	51 ± 1.3	44.1 ± 18.2	109 ± 40.9	80.6 ± 12.1	1.5 ± 0.6	IC50 ([5]; Table 6, N=4, read-out: Mean IC50 Values ± Standard Deviation, DNA Pol Alpha): 109 ± 40.9 µM
